Reference: PubChem BioAssay AID328 (DTP/NCI, 2004)
Several values for one entry are separate records, joined by “and”; a condition that tells them apart may be missing. Equal values may be shown once. Inconclusive results and toxic doses are left out.

What was measured:
[1] = tested on: BDF1 mice, P388 leukemia ip; assay: NCI In Vivo Anticancer Drug Screen. Data for tumor model P388 Leukemia (intraperitoneal) in B6D2F1 (BDF1) mice; conditions: endpoint: mean survival time, schedule: Q01DX009 (ip), vehicle: saline with Tween-80, higher = longer survival
Outline: (§1)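 Mice carrying the transplantable tumour receive compound or vehicle. Survival is followed in each arm, and the treated measure is divided by the vehicle measure.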

[2] = tested on: BDF1 mice, P388 leukemia ip, median survival T/C; assay: as above; conditions: endpoint: median survival time, higher = longer survival
Outline: as §1

[3] = dose: 50.0 mg/kg/injection, schedule: Q01DX009 (ip), vehicle: saline with Tween-80
[4] = dose: 50.0 mg/kg/injection, schedule: Q04DX003 (ip), vehicle: saline with Tween-80
[5] = dose: 100.0 mg/kg/injection, schedule: Q01DX009 (ip), vehicle: Klucel (hydroxypropylcellulose) (HPC)
[6] = dose: 100.0 mg/kg/injection, schedule: Q01DX009 (ip), vehicle: saline with Tween-80
[7] = dose: 200.0 mg/kg/injection, schedule: Q01DX009 (ip), vehicle: Klucel (hydroxypropylcellulose) (HPC)
[8] = dose: 200.0 mg/kg/injection, schedule: Q01DX009 (ip), vehicle: saline with Tween-80

## CNC(C)(C)C(SSSC(c1ccc(Cl)cc1)C(C)(C)NC)c1ccc(Cl)cc1 (stereo not given)
[1]; dose: 6.25 mg/kg/injection
  T/C: 95 % of control
[1]; dose: 12.5 mg/kg/injection
  T/C: 114 % of control
[1]; dose: 25.0 mg/kg/injection
  T/C: 103 % of control
[2]; dose: 12.5 mg/kg/injection, schedule: Q04DX003 (ip), vehicle: saline with Tween-80
  T/C: 101 % of control
[2]; dose: 25.0 mg/kg/injection, schedule: Q01DX009 (ip), vehicle: saline with Tween-80
  T/C: 102 % of control
[2]; dose: 25.0 mg/kg/injection, schedule: Q04DX003 (ip), vehicle: saline with Tween-80
  T/C: 100 % of control
[2]; [3]
  T/C: 94 % of control
[2]; [4]
  T/C: 95 % of control

## COC1=CC(=O)CC(C)C12Oc1c(Cl)c(OC)cc(OC)c1C2=O (stereo not given)
[2]; [5]
  T/C: 100 % of control
[2]; [6]
  T/C: 100 % of control
[2]; [7]
  T/C: 109 % of control
[2]; [8]
  T/C: 100 % of control
[2]; dose: 400.0 mg/kg/injection, schedule: Q01DX009 (ip), vehicle: Klucel (hydroxypropylcellulose) (HPC)
  T/C: 100 % of control
[2]; dose: 400.0 mg/kg/injection, schedule: Q01DX009 (ip), vehicle: saline with Tween-80
  T/C: 109 % of control

## COc1cc(O)c2c(c1)OC(c1ccc(OC)c(O)c1)CC2=O (stereo not given)
[2]; dose: 12.5 mg/kg/injection, schedule: Q01DX009 (ip), vehicle: alcohol
  T/C: 117 % of control
[2]; dose: 50.0 mg/kg/injection, schedule: Q01DX009 (ip), vehicle: alcohol
  T/C: 109 % of control
[2]; dose: 100.0 mg/kg/injection, schedule: Q01DX009 (ip), vehicle: alcohol
  T/C: 92 % of control

## COc1cc(C=Nc2ccc(Cl)cc2)ccc1N(CCCl)CCCl
[2]; dose: 2.2 mg/kg/injection, schedule: Q01DX009 (ip), vehicle: other
  T/C: 162 % of control
[2]; dose: 3.3 mg/kg/injection, schedule: Q01DX009 (ip), vehicle: other
  T/C: 150 % of control
[2]; dose: 5.0 mg/kg/injection, schedule: Q01DX009 (ip), vehicle: other
  T/C: 179 % of control
[2]; dose: 7.5 mg/kg/injection, schedule: Q01DX009 (ip), vehicle: other
  T/C: 183 % of control
[2]; dose: 22.0 mg/kg/injection, schedule: Q04DX003 (ip), vehicle: other
  T/C: 245 % of control
[2]; dose: 22.0 mg/kg/injection, schedule: Q04DX003 (ip), vehicle: saline
  T/C: 113 % of control
[2]; dose: 33.0 mg/kg/injection, schedule: Q04DX003 (ip), vehicle: other
  T/C: 272 % of control
[2]; dose: 33.0 mg/kg/injection, schedule: Q04DX003 (ip), vehicle: saline
  T/C: 100 % of control
[2]; dose: 50.0 mg/kg/injection, schedule: Q04DX003 (ip), vehicle: other
  T/C: 186 % of control
[2]; dose: 75.0 mg/kg/injection, schedule: Q04DX003 (ip), vehicle: saline
  T/C: 181 % of control

## CCCCC(C)C(=O)CC(SCC)c1ccccc1 (stereo not given)
[2]; [3]
  T/C: 103 % of control
[2]; [6]
  T/C: 114 % of control
[2]; [8]
  T/C: 105 % of control

## O=C(Nc1ccc(NC2=NCCN2)cc1)c1ccc(C(=O)Nc2ccc(NC3=NCCN3)cc2)cc1
[2]; dose: 2.0 mg/kg/injection, schedule: Q01DX010 (ip), vehicle: saline
  T/C: 165 % of control and 180 % of control
[2]; dose: 4.0 mg/kg/injection, schedule: Q01DX010 (ip), vehicle: saline
  T/C: 260 % of control and 205 % of control
[2]; dose: 8.0 mg/kg/injection, schedule: Q01DX010 (ip), vehicle: saline
  T/C: 260 % of control and 285 % of control
[2]; dose: 16.0 mg/kg/injection, schedule: Q01DX010 (ip), vehicle: saline
  T/C: 105 % of control and 110 % of control

## Cc1cc(NC(=O)c2ccccc2)c(Cl)cc1N
[2]; [4]
  T/C: 95 % of control
[2]; dose: 100.0 mg/kg/injection, schedule: Q04DX003 (ip), vehicle: saline with Tween-80
  T/C: 95 % of control
[2]; dose: 200.0 mg/kg/injection, schedule: Q04DX003 (ip), vehicle: saline with Tween-80
  T/C: 95 % of control

## O=C(Nc1ccc(C2=NCCCN2)cc1)c1ccc(C(=O)Nc2ccc(C3=NCCCN3)cc2)cc1
[2]; dose: 7.2 mg/kg/injection, schedule: Q04DX003 (ip), vehicle: Klucel (hydroxypropylcellulose) (HPC)
  T/C: 177 % of control
[2]; dose: 8.7 mg/kg/injection, schedule: Q04DX003 (ip), vehicle: saline with Tween-80
  T/C: 152 % of control
[2]; dose: 10.8 mg/kg/injection, schedule: Q04DX003 (ip), vehicle: other
  T/C: 194 % of control
[2]; dose: 12.0 mg/kg/injection, schedule: Q04DX003 (ip), vehicle: Klucel (hydroxypropylcellulose) (HPC)
  T/C: 194 % of control
[2]; dose: 13.2 mg/kg/injection, schedule: Q04DX003 (ip), vehicle: saline with Tween-80
  T/C: 168 % of control and 172 % of control
[2]; dose: 18.0 mg/kg/injection, schedule: Q04DX003 (ip), vehicle: other
  T/C: 203 % of control
[2]; dose: 20.0 mg/kg/injection, schedule: Q04DX003 (ip), vehicle: Klucel (hydroxypropylcellulose) (HPC)
  T/C: 250 % of control
[2]; dose: 20.0 mg/kg/injection, schedule: Q04DX003 (ip), vehicle: saline with Tween-80
  T/C: 250 % of control and 195 % of control
[2]; dose: 30.0 mg/kg/injection, schedule: Q04DX003 (ip), vehicle: other
  T/C: 97 % of control
[2]; dose: 30.0 mg/kg/injection, schedule: Q04DX003 (ip), vehicle: saline with Tween-80
  T/C: 268 % of control and 272 % of control
[2]; dose: 33.3 mg/kg/injection, schedule: Q04DX003 (ip), vehicle: Klucel (hydroxypropylcellulose) (HPC)
  T/C: 250 % of control

## CNc1ccccc1C#N
[2]; [5]
  T/C: 100 % of control
[2]; dose: 100.0 mg/kg/injection, schedule: Q04DX003 (ip), vehicle: Klucel (hydroxypropylcellulose) (HPC)
  T/C: 91 % of control
[2]; [7]
  T/C: 100 % of control
[2]; dose: 400.0 mg/kg/injection, schedule: Q04DX003 (ip), vehicle: Klucel (hydroxypropylcellulose) (HPC)
  T/C: 91 % of control

## O=C1OC(C(O)CO)C(O)=C1O (stereo not given)
[2]; dose: 0.01 mg/kg/injection, schedule: Q01DX009 (ip), vehicle: saline
  T/C: 105 % of control and 109 % of control
[2]; dose: 0.03 mg/kg/injection, schedule: Q01DX009 (ip), vehicle: saline
  T/C: 91 % of control and 100 % of control and 118 % of control
[2]; dose: 0.06 mg/kg/injection, schedule: Q01DX009 (ip), vehicle: saline
  T/C: 97 % of control and 100 % of control and 113 % of control
[2]; dose: 0.24 mg/kg/injection, schedule: Q01DX009 (ip), vehicle: saline
  T/C: 102 % of control
[2]; dose: 0.25 mg/kg/injection, schedule: Q01DX009 (ip), vehicle: saline
  T/C: 90 % of control and 110 % of control
[2]; dose: 0.5 mg/kg/injection, schedule: Q01DX009 (ip), vehicle: saline
  T/C: 95 % of control and 105 % of control
[2]; dose: 1.0 mg/kg/injection, schedule: Q01DX001 (ip), vehicle: saline
  T/C: 100 % of control
[2]; dose: 1.0 mg/kg/injection, schedule: Q01DX009 (ip), vehicle: saline
  T/C: 90 % of control and 95 % of control
[2]; dose: 2.0 mg/kg/injection, schedule: Q01DX001 (ip), vehicle: saline
  T/C: 100 % of control
[2]; dose: 2.0 mg/kg/injection, schedule: Q01DX009 (ip), vehicle: saline
  T/C: 95 % of control
[2]; dose: 4.0 mg/kg/injection, schedule: Q01DX001 (ip), vehicle: saline
  T/C: 105 % of control
[2]; dose: 4.0 mg/kg/injection, schedule: Q01DX009 (ip), vehicle: saline
  T/C: 90 % of control
[2]; dose: 8.0 mg/kg/injection, schedule: Q01DX009 (ip), vehicle: saline
  T/C: 100 % of control
[2]; dose: 16.0 mg/kg/injection, schedule: Q01DX001 (ip), vehicle: saline
  T/C: 105 % of control
[2]; dose: 16.0 mg/kg/injection, schedule: Q01DX009 (ip), vehicle: saline
  T/C: 100 % of control
[2]; dose: 32.0 mg/kg/injection, schedule: Q01DX001 (ip), vehicle: saline
  T/C: 100 % of control
[2]; dose: 32.0 mg/kg/injection, schedule: Q01DX009 (ip), vehicle: saline
  T/C: 90 % of control
[2]; dose: 64.0 mg/kg/injection, schedule: Q01DX001 (ip), vehicle: saline
  T/C: 95 % of control
[2]; dose: 100.0 mg/kg/injection, schedule: Q01DX009 (ip), vehicle: saline
  T/C: 100 % of control
[2]; dose: 100.0 mg/kg/injection, schedule: Q04DX003 (ip), vehicle: saline
  T/C: 95 % of control
[2]; dose: 200.0 mg/kg/injection, schedule: Q01DX009 (ip), vehicle: saline
  T/C: 105 % of control
[2]; dose: 200.0 mg/kg/injection, schedule: Q04DX003 (ip), vehicle: saline
  T/C: 95 % of control
[2]; dose: 400.0 mg/kg/injection, schedule: Q04DX003 (ip), vehicle: saline
  T/C: 95 % of control
